Test results published in patent publication US12637461B2, “Compounds for the activation of AMPK” (PFIZER INC., priority 2022, dated 2026).

Biological target: T1, human AMPK α2β2γ3 (Homo sapiens, UniProt O43741+P54646+Q9UGI9)
T1 construct: expressed in transfected cells; host or cells: HEK293AD cells, MaxCyte bulk electroporation
Assay: Primary cellular assay: γ3 associated phospho-Thr172 AMPK detection (custom pAMPK Surefire AlphaLISA) in α2β2γ3 bulk transiently transfected HEK293 cells
Format: cell-based
Conditions: activation of human AMPK α2β2γ3 (γ3 pThr172 AMPK signal) in transiently transfected HEK293 cells, 20 minutes compound incubation; for Emax: 20 min, read-out: Assay GMean Asy. Max (%); for Emax / Assay GMean Asy. Max (%): geometric mean of the asymptotic max; for EC50: geometric mean EC50, read-out: Assay GMean EC50
Protocol: Primary Cellular Assay—γ3 Associated Phospho-Thr172 AMPK Detection in α2β2γ3 Bulk Transiently Transfected HEK293 Cells
The cellular potencies of the compounds were evaluated using a custom pAMPK Surefire AlphaLISA designed to assess γ3 associated phospho-Thr172 AMPK and modulation by small molecules in AMPK α2β2γ3 transiently transfected HEK293 cells.
A pAMPK Surefire AlphaLISA (PE-ASLU-PAMPK) assay available through Perkin Elmer was modified to selectively assess γ3 pThr172 AMPK content (as opposed to total pThr172 AMPK) by labeling a γ3 antibody with a CaptSure™ tag and substituting it for the total α1c/α2 AMPK labeled antibodies in the kit. In the modified assay, the overall abundance of γ3 AMPK is recognized by the CaptSure γ3 antibody and the phosphorylated AMPK is recognized by biotinylated pThr172 antibody. Subsequent reactivity with streptavitin donor beads and anti CaptSure conjugated acceptor beads brings the molecules into close proximity. Upon excitation at 680 nm, the donor bead converts ambient oxygen to a more excited singlet state which reacts with the acceptor bead and emits light at 520 to 620 nm. The intensity of the signal is proportional to the level of γ3 associated pThr172 AMPK phosphorylation.
In short, AMPK-α2+β2+γ3 MaxCyte bulk-transfected HEK293AD cells were thawed in growth media (DMEM High glucose+10% FBS) in a collagen-coated T150 flask and the cells were allowed to adhere and grow overnight in a 37° C. incubator. The following day, the cells were harvested and resuspended in plating medium (DMEM Low glucose+10% FBS) at a concentration of 100,000 cells per mL and 50 μL of this cell suspension was added to all wells of a 384-well plate using a Multidrop Combi. The cells were allowed to adhere and grow for 2 days in a 37° C. incubator. On assay day, compounds were diluted in 100% dimethyl sulfoxide (DMSO) in a 11 dose, half log dilution scheme and spotted in the cell plates at 1000× the final concentration. Compound incubations were performed in plating media for 20 minutes. Cells were washed with PBS, lysed and the signal was generated by subsequent additions of RB1 reagent from the kit, 1:1000 CaptSure γ3 labeled antibody in 1× immunoassay buffer, Anti-CaptSure acceptor beads and Streptavitin donor beads at final concentration of […]. The γ3 pThr172 AMPK signal was developed using EnVision™ multilabel reader (Perkin Elmer) using Alphascreen settings. The fluorescence emission was used to calculate the % effect relative to the HPE (30 μM) and ZPE (DMSO). EC50 curves were generated with the ActivityBase software using the XLfit model 205 to determine EC50 and Emax values.
For screening purposes, bulk AMPK-α2+β2+γ3 MaxCyte bulk transfection into HEK293AD cells were generated to support SAR screening as follows.
HEK293AD cells were seeded into 10 flasks at 2.7×10^7 cells per flask. The following day 12 mL of Trypl E dissociation reagent were added to each flask to lift the cells and the cells were then spun at 300×g for 5 minutes. Cells were washed once in MaxCyte EP buffer and then resuspended in MaxCyte EP buffer at 1×10^8 cells per mL. For transfection, 500×10^6 cells in 500 μl MaxCyte EP buffer were placed in a CL1.1 Processing Assembly (electroporation cell) with 1 mg/mL ([…]) of each of the plasmids pcDNA3.1(+)-human AMPK alpha 2, pcDNA3.1(+)-human AMPK beta 2 and pcDNA3.1(+)-human AMPK gamma 3 and the electroporation was carried out on the MaxCyte STX using the HEK293 electroporation protocol. Following electroporation, cells were transferred to a T175 flask containing growth medium (DMEM High glucose+10% FBS) and allowed to recover for 25 minutes, then the cells were resuspended to final volume of 900 mL and distributed into 6XT175 flasks and allowed to adhere and grow overnight in a 37° C. incubator. […]

T1 sequence (P54646 whole entry): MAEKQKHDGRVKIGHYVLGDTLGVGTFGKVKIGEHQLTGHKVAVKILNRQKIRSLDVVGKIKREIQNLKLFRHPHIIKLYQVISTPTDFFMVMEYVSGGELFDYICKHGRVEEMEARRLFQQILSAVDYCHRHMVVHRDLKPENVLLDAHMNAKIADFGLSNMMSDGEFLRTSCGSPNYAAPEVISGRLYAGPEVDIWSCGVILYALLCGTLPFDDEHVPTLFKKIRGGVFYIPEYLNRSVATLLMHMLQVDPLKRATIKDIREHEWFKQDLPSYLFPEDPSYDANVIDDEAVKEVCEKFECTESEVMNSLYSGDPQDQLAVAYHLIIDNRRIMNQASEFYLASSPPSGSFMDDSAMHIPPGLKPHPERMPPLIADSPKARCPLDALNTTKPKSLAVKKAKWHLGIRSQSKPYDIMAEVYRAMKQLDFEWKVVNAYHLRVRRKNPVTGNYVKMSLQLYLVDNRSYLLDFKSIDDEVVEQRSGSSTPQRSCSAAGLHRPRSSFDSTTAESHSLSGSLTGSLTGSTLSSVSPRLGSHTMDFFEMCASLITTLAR
T1 sequence (O43741 whole entry): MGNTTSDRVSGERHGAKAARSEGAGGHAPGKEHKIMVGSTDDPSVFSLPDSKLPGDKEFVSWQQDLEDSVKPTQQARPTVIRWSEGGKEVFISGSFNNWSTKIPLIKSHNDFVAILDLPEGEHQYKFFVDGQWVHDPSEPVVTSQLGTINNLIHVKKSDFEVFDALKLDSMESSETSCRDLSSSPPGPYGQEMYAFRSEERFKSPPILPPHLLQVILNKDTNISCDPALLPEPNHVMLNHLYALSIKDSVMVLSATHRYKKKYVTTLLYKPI
T1 sequence (Q9UGI9 whole entry): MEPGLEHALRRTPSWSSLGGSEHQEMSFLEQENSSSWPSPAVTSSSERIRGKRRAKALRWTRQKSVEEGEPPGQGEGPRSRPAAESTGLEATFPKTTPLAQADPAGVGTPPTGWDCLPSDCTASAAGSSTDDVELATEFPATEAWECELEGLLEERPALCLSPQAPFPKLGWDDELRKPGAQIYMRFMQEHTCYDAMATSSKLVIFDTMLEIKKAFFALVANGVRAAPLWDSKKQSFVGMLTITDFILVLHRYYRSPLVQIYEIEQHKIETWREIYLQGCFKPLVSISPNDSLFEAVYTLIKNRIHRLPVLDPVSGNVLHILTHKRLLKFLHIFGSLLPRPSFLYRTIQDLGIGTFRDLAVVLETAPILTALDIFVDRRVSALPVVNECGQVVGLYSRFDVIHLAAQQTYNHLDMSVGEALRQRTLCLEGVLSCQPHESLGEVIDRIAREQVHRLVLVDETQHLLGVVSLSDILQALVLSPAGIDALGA

Compound	Emax	EC50	Assay GMean Asy. Max (%)
CC1(c2cccc(Cl)c2F)CN(c2ncccc2F)C(=O)c2cnc(NC3CN(C(=O)N4C[C@H]5C[C@@H]4[C@@H](O)C5)C3)nc21 (single isomer, unassigned) [Example 32]	173%	219 nM	
CN(C(=O)CN1CC(Nc2ccc3c(c2F)C(C)(c2cccc(Cl)c2F)CN(c2nn(C)cc2F)C3=O)C1)C1CC1 (single isomer, unassigned) [Example 34, 2-(3-{[4-(3-Chloro-2-fluorophenyl)-5-fluoro-2-(4-fluoro-1-methyl-1H-pyrazol-3-yl)-4-methyl-1-oxo-1,2,3,4-tetrahydroisoquinolin-6-yl]amino}azetidin-1-yl)-N-cyclopropyl-N-methylacetamide]	208%	31.7 nM	
CC1(c2cccc(Cl)c2F)CN(c2ccc(CO)cn2)C(=O)c2ccc(NC3CN(C(=O)N4C[C@@H]5C[C@H]4CO5)C3)c(F)c21 (single isomer, unassigned) [Example 37]	163%	19.1 nM	
CN(C)c1nc(NC2CN(C(=O)C3(O)CC3)C2)nc2c1C(=O)N(c1ncccc1F)CC2(C)c1cccc(Cl)c1F (single isomer, unassigned) [Example 38, 8-(3-Chloro-2-fluorophenyl)-4-(dimethylamino)-6-(3-fluoropyridin-2-yl)-2-{[1-(1-hydroxycyclopropane-1-carbonyl)azetidin-3-yl]amino}-8-methyl-7,8-dihydropyrido[4,3-d]pyrimidin-5(6H)-one]	217%	146 nM	
Cn1cc(F)c(N2C[C@](C)(c3cccc(Cl)c3F)c3c(cnc(NC4CN(C(=O)C(O)C5CC5)C4)c3F)C2=O)n1 (single isomer, unassigned) [compound 42]	76.2%	59.1 nM	
Cn1cc(F)c(N2C[C@](C)(c3cccc(Cl)c3F)c3c(cnc(NC4CN(C(=O)C(O)C5CC5)C4)c3F)C2=O)n1 (single isomer, unassigned) [compound 43]		172 nM	77.4%
Cn1cc(F)c(N2C[C@](C)(c3cccc(Cl)c3F)c3c(cnc(NC4CN(C(=O)C(O)CC(F)(F)F)C4)c3F)C2=O)n1 (single isomer, unassigned) [compound 44]		78.1 nM	77.9%
Cn1cc(F)c(N2C[C@](C)(c3cccc(Cl)c3F)c3c(cnc(NC4CN(C(=O)C(O)CC(F)(F)F)C4)c3F)C2=O)n1 (single isomer, unassigned) [compound 45]		66.4 nM	100%
COCC(C)(O)C(=O)N1CC(Nc2ncc3c(c2F)C(C)(c2cccc(Cl)c2F)CN(c2nn(C)cc2F)C3=O)C1 (single isomer, unassigned) [compound 46]	111%	86.1 nM	
COCC(C)(O)C(=O)N1CC(Nc2ncc3c(c2F)C(C)(c2cccc(Cl)c2F)CN(c2nn(C)cc2F)C3=O)C1 (single isomer, unassigned) [compound 47]		264 nM	105%
CN1CCC(N2CC(Nc3ncc4c(c3F)[C@@](C)(c3cccc(Cl)c3F)CN(c3nn(C)cc3F)C4=O)C2)C1=O (single isomer, unassigned) [compound 69]	81.6%	29.2 nM	
CN1CCC(N2CC(Nc3ncc4c(c3F)[C@@](C)(c3cccc(Cl)c3F)CN(c3nn(C)cc3F)C4=O)C2)C1=O (single isomer, unassigned) [compound 70]		47.6 nM	80.4%
CN1CCCC(N2CC(Nc3ncc4c(c3F)[C@@](C)(c3cccc(Cl)c3F)CN(c3nn(C)cc3F)C4=O)C2)C1=O (single isomer, unassigned) [compound 71]	139%	19.8 nM	
CN1CCCC(N2CC(Nc3ncc4c(c3F)[C@@](C)(c3cccc(Cl)c3F)CN(c3nn(C)cc3F)C4=O)C2)C1=O (single isomer, unassigned) [compound 72]		42.3 nM	121%
CC1(c2cccc(Cl)c2F)CN(c2ccc3cncn3c2)C(=O)c2cnc(NC3CN(C(=O)[C@@H]4C[C@@H]4F)C3)nc21 (single isomer, unassigned) [compound 79]	121%	2830 nM	
CC1(c2cccc(Cl)c2F)CN(c2ncccc2F)C(=O)c2cnc(NC3CN(C(=O)[C@@H]4C[C@@H]4F)C3)nc21 (single isomer, unassigned) [compound 81]	123%	> 1060 nM	
CC1(c2cccc(Cl)c2F)CN(c2ncccc2F)C(=O)c2cnc(NC3CN(C(=O)[C@@H]4CC45CCOCC5)C3)nc21 (single isomer, unassigned) [compound 82]	218%	107 nM	
COC[C@H](C)NC(=O)N1CC(Nc2ncc3c(n2)C(C)(c2cccc(Cl)c2F)CN(c2ncccc2F)C3=O)C1 (single isomer, unassigned) [compound 85]	141%	162 nM	
CC1(c2cccc(Cl)c2F)CN(c2ncccc2F)C(=O)c2cnc(NC3CN(C(=O)N4CCC[C@@H]4CO)C3)nc21 (single isomer, unassigned) [compound 86]	106%	34.6 nM	
CC1(c2cccc(Cl)c2F)CN(c2ncccc2F)C(=O)c2cnc(NC3CN(C(=O)N4C[C@@H]5C[C@H]4CO5)C3)nc21 (single isomer, unassigned) [compound 88]	213%	71.6 nM	
Cn1cc(F)c(N2C[C@](C)(c3cccc(Cl)c3F)c3c(cnc(NC4CN(C(=O)C5CCC(F)(F)CN5)C4)c3F)C2=O)n1 (single isomer, unassigned) [compound 95]	78%	125 nM	
Cn1cc(F)c(N2C[C@](C)(c3cccc(Cl)c3F)c3c(cnc(NC4CN(C(=O)C5CCC(F)(F)CN5)C4)c3F)C2=O)n1 (single isomer, unassigned) [compound 96]		60.5 nM	85.5%
Cn1cnc(N2C[C@](C)(c3cccc(Cl)c3F)c3c(cnc(NC4CN(C(=O)C5CC5C(F)(F)F)C4)c3F)C2=O)c1 (single isomer, unassigned) [compound 97]		150 nM	25.8%
Cn1cnc(N2C[C@](C)(c3cccc(Cl)c3F)c3c(cnc(NC4CN(C(=O)C5CC5C(F)(F)F)C4)c3F)C2=O)c1 (single isomer, unassigned) [compound 98]		114 nM	66.2%
CC1(c2ccc(F)c(Cl)c2F)CN(c2ccc(N)cn2)C(=O)c2cnc(NC3CN(C(=O)[C@@H]4C[C@@H]4F)C3)c(F)c21 (single isomer, unassigned) [compound 102]	51.4%	25.9 nM	
CC1(c2ccc(F)c(Cl)c2F)CN(c2ccc(CO)cn2)C(=O)c2cnc(NC3CN(C(=O)N4C[C@@H]5C[C@H]4CO5)C3)c(F)c21 (single isomer, unassigned) [compound 103]	113%	27.5 nM	
Cc1c(F)ccc(C2(C)CN(c3ccc(N)cn3)C(=O)c3cnc(NC4CN(C(=O)[C@@H]5C[C@@H]5F)C4)c(F)c32)c1F (single isomer, unassigned) [compound 104]	49.8%	32.1 nM	
Cc1c(F)ccc(C2(C)CN(c3ccc(CO)cn3)C(=O)c3cnc(NC4CN(C(=O)[C@@H]5C[C@@H]5F)C4)c(F)c32)c1F (single isomer, unassigned) [compound 105]	38.4%	19.8 nM	
